Where two headings read alike, the source gives them in different places.
How the values were obtained:
[1] = test system: P. falciparum female gametocytes; parameters: method as in Miguel-Blanco et al 2017; settings: ref Miguel-Blanco et al 2017, read-out: Pf FGAA IC50, cited from earlier work
[2] = test system: P. falciparum female gametocytes; experiment: P. falciparum female gametogenesis assay (Pf FGAA); settings: 1: YES, 0: NO
HepG2 cells [3] = settings: HepG2 value reported with Pf FGAA screen; ref Miguel-Blanco et al 2017; cited from earlier work
HepG2 cells [4] = experiment: HepG2 cytotoxicity assay; settings: unified HepG2 cytotoxicity across the three screens
Procedure, shortened: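 Here viability after a 48 h compound incubation (37°C, humidified 5% CO2) is measured by fluorescence and expressed as percent inhibition, with doxorubicin at 50 μM and DMSO as the bounding controls.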

[5] = >10-fold selectivity over cytotox

Row | Structure (SMILES) | IC50 ([1]; TCAMS library screen) [nM] | Is compound selective in assay? Pf FGAA active? [2] | HepG2 cytoxicity (Pf FGAA screen) (HepG2 cells [3]) [µM] | IC50 [1] [nM] | Is compound selective in assay? Pf FGAA active? [2, 5] | Unified cytotox (HepG2 cells [4]) [µM]
1 | CCCC(=O)NC(c1ccc(C)cc1)c1ccc2cccnc2c1O (stereo not drawn) [TCMDC-123605] | 1730 | 0 (0: NO) | 9.22 | – | – | –
2 | Cc1ccc(-c2nc3cc(NC(=O)c4ccc([N+](=O)[O-])o4)ccc3o2)cc1Cl [TCMDC-123657] | 1350 | 0 (0: NO) | 1.72 | – | – | –
3 | Cc1ccnc(NC(c2ccc(Cl)c([N+](=O)[O-])c2)c2ccc3cccnc3c2O)c1 (stereo not drawn) [TCMDC-123691] | 1480 | 1 (1: YES) | 23.45 | – | – | –
4 | N#CC(c1ccc(Br)cc1)c1ccc2c(C(F)(F)F)cc(C(F)(F)F)nc2n1 (stereo not drawn) [TCMDC-123754] | 1160 | 0 (0: NO) | 2.32 | – | – | –
5 | FC(F)(F)c1cnc(Sc2nnc(-c3ccncc3)o2)c(Cl)c1 [TCMDC-123767] | 160 | 1 (1: YES) | >100 | – | – | –
6 | OC1CCN(c2cc(-c3ccccn3)nc(-c3ccccn3)n2)CC1 [TCMDC-123786] | 1540 | 0 (0: NO) | 14.14 | – | – | –
7 | COc1ccc(-c2csc3ncnc(Cl)c23)cc1 [TCMDC-123805] | 1460 | 0 (0: NO) | 0.55 | – | – | –
8 | Clc1ccc(-c2csc3ncnc(Cl)c23)cc1 [TCMDC-123811] | 1570 | 1 (1: YES) | 94.46 | – | – | –
9 | O=C(Nc1nc(-c2ccccn2)cs1)c1ccc(Br)s1 [TCMDC-123868] | 1160 | 1 (1: YES) | 37.44 | – | – | –
10 | CCCC(=O)NC(c1ccc(C(C)C)cc1)c1ccc2cccnc2c1O (stereo not drawn) [TCMDC-123884] | 1540 | 1 (1: YES) | >100 | – | – | –
11 | CCOc1ccc(-n2nc3c(Cl)nnc(-c4ccccc4)c3c2-c2ccccc2)cc1 [TCMDC-123899] | 940 | 1 (1: YES) | >100 | – | – | –
12 | OCCN1CCN(c2ccc(Nc3ccnc4cc5ccccc5cc34)cc2)CC1 [TCMDC-123915] | 3340 | 0 (0: NO) | 5.43 | – | – | –
13 | CCc1cc2c(Sc3nnc(N)s3)ncnc2s1 [TCMDC-123993] | 730 | 1 (1: YES) | 32.30 | – | – | –
14 | Cc1cc(I)ccc1Nc1nc2nonc2nc1Nc1ccc(I)cc1C [TCMDC-124083] | 1080 | 0 (0: NO) | 0.93 | – | – | –
15 | FC(F)(F)c1cccc(Nc2nc3ccccc3nc2Nc2cccc(C(F)(F)F)c2)c1 [TCMDC-124162] | 2400 | 0 (0: NO) | 17.68 | – | – | –
16 | CC(C)C1=CC(=NOS(=O)(=O)c2ccccc2)C=C(C(C)C)C1=O [TCMDC-124172] | 880 | 1 (1: YES) | 21.70 | – | – | –
17 | CCN1CCN(c2ccc(Nc3c4ccccc4nc4ccccc34)cc2)CC1 [TCMDC-124255] | 1000 | 0 (0: NO) | 4.57 | – | – | –
18 | Cc1ccc(Cl)c2sc(N3CCN(C(=O)c4ccc([N+](=O)[O-])o4)CC3)nc12 [TCMDC-124311] | 1440 | 1 (1: YES) | 25.79 | – | – | –
19 | Cc1ccc(C)c2sc(N3CCN(C(=O)c4ccc([N+](=O)[O-])o4)CC3)nc12 [TCMDC-124315] | 1120 | 1 (1: YES) | 37.65 | – | – | –
20 | O=C(c1ccc([N+](=O)[O-])o1)N1CCN(c2nc3c(Cl)cccc3s2)CC1 [TCMDC-124316] | 1100 | 1 (1: YES) | 41.96 | – | – | –
21 | CC(C)(C)Nc1cc(C2CC2)nc(-c2ccccn2)n1 [TCMDC-124453] | 100 | 1 (1: YES) | >100 | – | – | –
22 | O=C(Nc1ccc([N+](=O)[O-])cc1)Nc1cc(OCC(F)(F)F)cc(OCC(F)(F)F)c1 [TCMDC-124533] | 1160 | 0 (0: NO) | 6.24 | – | – | –

Row | Structure (SMILES) | IC50 ([1]; TCAMS library screen) [nM] | Is compound selective in assay? Pf FGAA active? [2] | HepG2 cytoxicity (Pf FGAA screen) (HepG2 cells [3]) [µM] | IC50 [1] [nM] | Is compound selective in assay? Pf FGAA active? [2, 5] | Unified cytotox (HepG2 cells [4]) [µM]
23 | CC1Cc2ccccc2N1S(=O)(=O)c1cccc(C(=O)Nc2nc(-c3ccccn3)cs2)c1 (stereo not drawn) [TCMDC-124559] | 340 | 1 (1: YES) | 50.12 | – | – | –
24 | c1ccn2c(Sc3ncnc4sccc34)ncc2c1 [TCMDC-124602] | 240 | 1 (1: YES) | >100 | – | – | –
25 | Cl.Clc1cc(Br)ccc1-c1ccc(CNCC2CCNCC2)o1 [TCMDC-124617] | 720 | 0 (0: NO) | 4.37 | – | – | –
26 | CN1CCC(N2CCC(Oc3cccc(C(=O)NCCCC4CCCC4)c3)CC2)CC1 [TCMDC-124677] | 1470 | 0 (0: NO) | 4.90 | – | – | –
27 | Cc1ccc2c(c1)c(C1CCN(C(=O)c3ccc([N+](=O)[O-])o3)CC1)cn2C [TCMDC-124787] | 2120 | 1 (1: YES) | 28.85 | – | – | –
28 | Cc1sc2nc(CN3CCCC3)nc(-n3c(NCCO)nc4ccccc43)c2c1C [TCMDC-124811] | 7050 | 0 (0: NO) | 25.73 | – | – | –
29 | O=C(CCC1CCCC1)N(Cc1ccc(-c2ccc(CNCCc3ccccc3)cc2)cc1)C1CCCNC1.O=C(O)C(F)(F)F (stereo not drawn) [TCMDC-141444] | – | – | – | 1980 | 0 (0: NO) | 5.19
30 | CN1CCCC1CCNc1ncc2c(-c3ccc(NC(=O)Nc4cc(C(F)(F)F)ccc4F)c(F)c3)nn(C)c2n1.O=C(O)C(F)(F)F (stereo not drawn) [TCMDC-141610] | – | – | – | 1470 | 0 (0: NO) | 4.62
31 | CN1CCN(CCCNc2ncc3c(-c4ccc(NC(=O)Nc5cc(C(F)(F)F)ccc5F)c(F)c4)nn(C)c3n2)CC1.O=C(O)C(F)(F)F [TCMDC-141611] | – | – | – | 870 | 0 (0: NO) | 4.90
32 | Cc1ccc(Cn2nc(Cl)c(N3CCCNCC3)cc2=O)cc1NC(=O)Nc1ccc(-c2ccccc2)cc1.O=C(O)C(F)(F)F [TCMDC-141697] | – | – | – | 990 | 0 (0: NO) | 7.25
33 | Cc1ccc(Cn2nc(Cl)c(N3CCNCC3)cc2=O)cc1NC(=O)Nc1ccc(-c2ccccc2)cc1.O=C(O)C(F)(F)F [TCMDC-141698] | – | – | – | 440 | 1 (1: YES) | 4.79
34 | Cc1c(Cn2nc(Cl)c(N3CCNCC3)cc2=O)cccc1NC(=O)Nc1ccc(-c2ccccc2)cc1.O=C(O)C(F)(F)F [TCMDC-141699] | – | – | – | 4910 | 0 (0: NO) | 4.22
35 | Cl.O=S(=O)(Nc1cc2c(cc1OCCCN1CCCCC1)CCNCC2)c1ccc(-c2ccc(Cl)cc2)cc1 [TCMDC-141753] | – | – | – | 2000 | 0 (0: NO) | 4.37
36 | CN1CCc2cc(NS(=O)(=O)c3ccc(-c4ccc(Cl)cc4)cc3)c(OCCCN3CCCCC3)cc2CC1.Cl [TCMDC-141754] | – | – | – | 970 | 0 (0: NO) | 2.23
37 | Cc1ccc(Cn2ncc(N3CCCNCC3)c(Cl)c2=O)cc1NC(=O)Nc1ccc(-c2ccccc2)cc1 [TCMDC-141924] | – | – | – | 1730 | 0 (0: NO) | 7.86
38 | Nc1nc(N)c2cc(NC(=O)c3ccc(Cl)c(Cl)c3)ccc2n1 [TCMDC-141982] | – | – | – | 1590 | 0 (0: NO) | 2.14
39 | Cl.OC(CNCCCCCCNCC(O)c1ccc(Cl)c(Cl)c1)c1ccc(Cl)c(Cl)c1 (stereo not drawn) [TCMDC-141987] | – | – | – | 900 | 0 (0: NO) | 4.27
40 | Cl.N=C1C=C(N)C(=O)c2ccccc21 [TCMDC-141992] | – | – | – | 11900 | 0 (0: NO) | 0.52
41 | CCn1c2ccccc2c2cc(C=NN=c3cc(C)[nH]c4ccccc34)ccc21 [TCMDC-142186] | – | – | – | 4150 | 0 (0: NO) | 5.82
42 | CCOc1ccc2c(=NN=Cc3cc(OC)c(OC)cc3OC)cc(C)[nH]c2c1 [TCMDC-142207] | – | – | – | 1220 | 0 (0: NO) | 12.17
43 | Cc1c(N=O)cc(C(C)(C)C)c(O)c1C(=O)Nc1ccc([N+](=O)[O-])cc1Cl [TCMDC-142233] | – | – | – | 1170 | 0 (0: NO) | 1.78
44 | CN(C)CCN1CCN(CCCN2c3ccccc3Sc3ccc(C(F)(F)F)cc32)CC1.Cl [TCMDC-142257] | – | – | – | 5250 | 1 (1: YES) | 77.62

From publication PMC6753678, “Fueling Open Innovation for Malaria Transmission-Blocking Drugs: Hundreds of Molecules Targeting Early Parasite Mosquito Stages” (Frontiers in Microbiology, 2019)
